Experimental data from patent US20110171683A1, “METHODS AND COMPOSITIONS FOR ENUMERATING ANTIBIOTIC-RESISTANT MICROORGANISMS” (priority 2008, published 2011).

Test system: methicillin-resistant Staphylococcus aureus strain 560
Experiment: Colony counts on PETRIFILM plates and blood agar plates containing cefoxitin or oxacillin
Assay type: cell-based
Settings: conclusion in words from Tables 1 and 2
Experimental: PETRIFILM Aerobic Count Plates were obtained from 3M Company (St. Paul, Minn.). DIFCO dehydrated tryptic soy agar (TSA) was obtained from BD Diagnostics (Sparks, Md.). Defibrinated sheep blood was obtained from Remel, Inc. (Lenexa, Kans.).
Phosphate-buffered saline (PBS), pH 7.5, was prepared from a 10× concentrate (OmniPur 6505 buffered saline; EMD Chemicals, Inc.; Gibbstown, N.J.) and was sterilized by autoclaving. Antibiotic stock solutions were prepared in deionized water and were sterilized by passage through a 0.22 μm filter.
Sheep blood agar containing cefoxitin (SBA-Cf) was prepared to compare the recovery of antibiotic resistant microorganisms on agar media to the recovery of the antibiotic-resistant microorganisms in a thin-film culture device. Twenty grams of dehydrated TSA was mixed with 475 mL of deionized water and autoclaved. The molten agar was tempered at 50° C. Twenty-five milliliters of defibrinated sheep blood was added to the agar (to yield a final concentration of 5% sheep blood) and swirled to mix. Cefoxitin stock solution (0.5 mL of 4 mg/mL) was added to the agar and swirled to mix. […]
Bacterial strains were inoculated into tryptic soy broth and were incubated overnight at 37° C. […] All plates were incubated at 35° C. and the colonies on each plate were counted at 24±2 hours and 48±4 hours.

Row | SMILES | Sensitivity or resistance of strain 560 to the antibiotic
1 | CO[C@@]1(NC(=O)Cc2cccs2)C(=O)N2C(C(=O)O)=C(COC(N)=O)CS[C@@H]21 [cefoxitin] | sensitive
2 | Cc1onc(-c2ccccc2)c1C(=O)N[C@@H]1C(=O)N2[C@@H]1SC(C)(C)[C@@H]2C(=O)O [oxacillin] | resistant
